Data on 10 compounds can be found in ChEMBL document CHEMBL1201862, “PubChem BioAssay data set” (2004).

Among the test systems are MOLT-4; DU-145; NCI-H226; SF-539; HOP-62; RPMI-8226; T47D; SF-268; HL-60; Hs-578T; NCI-H460; SNB-19; UO-31; HT-29; SK-MEL-2; PC-3; SF-295; SW-620; NCI/ADR-RES; HCT-116.
Holding throughout (assay): inhibition of tumour cell growth, NCI panel, 48 h

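Dose response: 5 concentrations. Exposure: 48 h. Format: 96-well plates. Endpoint: linear interpolation; highest concentration if not reached. GI50 is the concentration that inhibits growth by half.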 The source made the active and inactive calls. Rule as the data show it: active = GI50 up to about 1.1 µM and inactive = higher.

Turning to `O=C(c1ccccc1)c1c(C(F)(F)F)[n+]([O-])c2cc(F)c(F)cc2[n+]1[O-]`, the GI50 was 0.242 µM (active) in the assay with MOLT-4; 0.984 µM (active) in the assay with DU-145; 1.73 µM (inactive) with NCI-H226; 0.838 µM (active) in the assay with SF-539; 1.25 µM (inactive) in the assay on HOP-62; 0.679 µM (active) with RPMI-8226. Moreover, the GI50 in the assay on T47D was 1.79 µM (inactive); with SF-268 it was 1.32 µM (inactive); with HL-60, < 0.144 µM (active); in the assay on Hs-578T, 0.942 µM (active); in the assay on NCI-H460, 3.21 µM (inactive); in the assay on SNB-19, 4.05 µM (inactive). For the same compound, the GI50 with UO-31 was 1.38 µM (inactive); with HT-29, 0.586 µM (active); in the assay on SK-MEL-2, 1.79 µM (inactive); in the assay on PC-3, 0.716 µM (active); in the assay on SF-295 it was 0.946 µM (active); in the assay with SW-620 it was 0.499 µM (active). Besides, the GI50 in the assay with NCI/ADR-RES was 0.367 µM (active); with HCT-116, 0.156 µM (active).

Turning to `O=c1[nH]c2cccc([N+](=O)[O-])c2c(=O)n1-c1ccc(Cl)cc1`, the GI50 in the assay on MOLT-4 was 19 µM (inactive); in the assay with DU-145 it was 15.1 µM (inactive); with NCI-H226, 13.6 µM (inactive); in the assay on SF-539, 12.3 µM (inactive); in the assay on HOP-62 it was 18.6 µM (inactive); in the assay on RPMI-8226, 13.6 µM (inactive). For the same compound, the GI50 in the assay with T47D is 11 µM (inactive); in the assay on SF-268 it was 12.2 µM (inactive); in the assay with HL-60 it was 11.7 µM (inactive); in the assay with Hs-578T it was 17 µM (inactive); in the assay on NCI-H460, 4.4 µM (inactive); with SNB-19, 20 µM (inactive). For the same compound, the GI50 is 7.03 µM (inactive) in the assay on HT-29; 9.86 µM (inactive) with SK-MEL-2; 16.6 µM (inactive) in the assay on PC-3; 1.89 µM (inactive) in the assay on SF-295; 10.4 µM (inactive) with SW-620; 10.4 µM (inactive) in the assay on NCI/ADR-RES. Moreover, in the assay on HCT-116, the GI50 is 17.9 µM (inactive).

For `O=C(NCCCNCCCNC(=O)c1cc(-c2ccccc2)nc2ccccc12)c1cc(-c2ccccc2)nc2ccccc12`, the GI50 with DU-145 is 1.59 µM (inactive); in the assay on NCI-H226, 1.69 µM (inactive); with SF-539, 2.47 µM (inactive); in the assay with HOP-62, 1.11 µM (active); in the assay with RPMI-8226 it was 1.72 µM (inactive); in the assay on T47D, 2.02 µM (inactive). The GI50 is 1.83 µM (inactive) with SF-268; 1.4 µM (inactive) in the assay with HL-60; 2.35 µM (inactive) in the assay on Hs-578T; 1.75 µM (inactive) in the assay on NCI-H460; 1.72 µM (inactive) with SNB-19; 1.83 µM (inactive) with UO-31. The GI50 in the assay on HT-29 is 1.75 µM (inactive); in the assay with SK-MEL-2 it was 2 µM (inactive); in the assay on PC-3, 1.6 µM (inactive); with SF-295 it was 1.88 µM (inactive); in the assay on SW-620, 2.39 µM (inactive); in the assay on NCI/ADR-RES it was 2.39 µM (inactive). In the assay on HCT-116, the GI50 is 1.73 µM (inactive).

For `O=C(CSc1nc2ccc(I)cc2c(=O)n1Cc1ccccc1)Nc1ccc(Br)cc1`, the GI50 in the assay with MOLT-4 was > 100 µM (inactive); in the assay with DU-145, 70.5 µM (inactive); in the assay with NCI-H226 it was 25.9 µM (inactive); in the assay with SF-539, 2.32 µM (inactive); in the assay with HOP-62 it was 78.2 µM (inactive); with RPMI-8226 it was > 100 µM (inactive). For the same compound, the GI50 is 97.9 µM (inactive) in the assay on T47D; 12.2 µM (inactive) in the assay on SF-268; > 100 µM (inactive) in the assay on HL-60; 17.8 µM (inactive) in the assay with Hs-578T; 68.1 µM (inactive) with SNB-19; 0.114 µM (active) with UO-31. In addition, the GI50 in the assay with HT-29 was > 100 µM (inactive); with SK-MEL-2 it was 64.1 µM (inactive); in the assay with PC-3, 17.5 µM (inactive); in the assay on SF-295, 35.6 µM (inactive); with SW-620 it was 97.5 µM (inactive); in the assay with NCI/ADR-RES, 51.9 µM (inactive). Further, the GI50 with HCT-116 was 88.5 µM (inactive).

Turning to `O=C1Nc2ccccc2NC1C1OC(c2ccccc2)=CC1=O` (stereo not given), the GI50 with MOLT-4, in the assay with DU-145, in the assay with NCI-H226, in the assay with SF-539, in the assay with RPMI-8226 and with T47D was > 100 µM (inactive) each time. The GI50 with SF-268, with HL-60, in the assay with Hs-578T, in the assay on NCI-H460, in the assay on SNB-19 and in the assay on UO-31 was > 100 µM (inactive) each time. In addition, the GI50 with HT-29 was > 100 µM (inactive); in the assay on SK-MEL-2, > 100 µM (inactive); with PC-3, > 100 µM (inactive); in the assay with SF-295, > 100 µM (inactive); with SW-620 it was > 100 µM (inactive); with NCI/ADR-RES it was 82.2 µM (inactive). The GI50 with HCT-116 was > 100 µM (inactive).

On to `CCN1C=C/C(=C\C=C\c2cc[n+](CC)c3ccccc23)c2ccccc21`, for which the GI50 in the assay with MOLT-4 was 3.2 µM (inactive); in the assay with DU-145, 4.92 µM (inactive); with NCI-H226 it was 3.36 µM (inactive); in the assay with SF-539 it was 3.39 µM (inactive); in the assay with HOP-62, 3.24 µM (inactive); in the assay with RPMI-8226 it was 3.07 µM (inactive). For the same compound, the GI50 was 5.93 µM (inactive) in the assay on T47D; 4.99 µM (inactive) in the assay with SF-268; 0.0135 µM (active) in the assay with HL-60; 4.02 µM (inactive) in the assay on Hs-578T; 3.4 µM (inactive) in the assay on NCI-H460; 4.17 µM (inactive) with SNB-19. Moreover, the GI50 with UO-31 is 15.2 µM (inactive); in the assay on HT-29 it was 3.51 µM (inactive); in the assay with SK-MEL-2, 7.62 µM (inactive); in the assay on PC-3, 4.49 µM (inactive); in the assay on SF-295, 3.58 µM (inactive); in the assay on SW-620, 4.62 µM (inactive). Also, the GI50 is 64.4 µM (inactive) in the assay with NCI/ADR-RES and 2.75 µM (inactive) with HCT-116.

Take `CC(=O)Oc1c(C)c2c(O)c3c1C1=C(OCOC1=C(C)C3=O)/C(C)=C/C(C)(O)C(O)C(C)C(O)C1C(=O)OC(C(C)C1O)C(C)(O)/C=C\C=C(C)C(=O)N2` (stereo not given): the GI50 with MOLT-4 is 36.1 µM (inactive); in the assay with DU-145, 45.4 µM (inactive); with NCI-H226, 18.1 µM (inactive); in the assay on SF-539 it was 10.4 µM (inactive); with HOP-62, 19.2 µM (inactive); in the assay with RPMI-8226, 86.9 µM (inactive). The GI50 with T47D is > 100 µM (inactive); in the assay with SF-268 it was 31.8 µM (inactive); with HL-60 it was 3.25 µM (inactive); with Hs-578T it was 25.7 µM (inactive); with NCI-H460, > 100 µM (inactive); in the assay on SNB-19 it was 66.8 µM (inactive). Also, the GI50 with UO-31 is 11.1 µM (inactive); in the assay on HT-29 it was > 100 µM (inactive); in the assay with SK-MEL-2, 34.4 µM (inactive); in the assay with PC-3, 27.5 µM (inactive); in the assay with SF-295, 38.3 µM (inactive); in the assay on SW-620 it was 63 µM (inactive). Besides, the GI50 is 78.3 µM (inactive) with NCI/ADR-RES and 57.1 µM (inactive) with HCT-116.

On to `CCN1C(=O)/C(=C\Nc2ccccc2)S/C1=N/Nc1ncc(CC(=O)Nc2ccccc2C)s1`, for which the GI50 in the assay on MOLT-4 was 51.5 µM (inactive); in the assay on DU-145, > 100 µM (inactive); in the assay with NCI-H226, 11.2 µM (inactive); in the assay with SF-539, > 100 µM (inactive); with HOP-62, > 100 µM (inactive); in the assay with RPMI-8226, 36.5 µM (inactive). For the same compound, the GI50 in the assay on T47D was 45.3 µM (inactive); with SF-268, 88.5 µM (inactive); in the assay on HL-60, 42.6 µM (inactive); in the assay on Hs-578T, 45.6 µM (inactive); in the assay with NCI-H460, 29.1 µM (inactive); with SNB-19, > 100 µM (inactive). The GI50 in the assay on UO-31 was 38.7 µM (inactive); in the assay with HT-29, 33.7 µM (inactive); in the assay with SK-MEL-2 it was > 100 µM (inactive); in the assay with PC-3, 44.9 µM (inactive); in the assay on SF-295, 64.7 µM (inactive); with SW-620 it was > 100 µM (inactive). Besides, the GI50 in the assay with NCI/ADR-RES was 45 µM (inactive); with HCT-116 it was > 100 µM (inactive).

Take `O=C(O)CCC(N/N=N/c1ccc(-c2nc3ccccc3[nH]2)cc1)C(=O)O` (stereo not given): the GI50 in the assay with MOLT-4 was 31.6 µM (inactive); in the assay on DU-145 it was > 100 µM (inactive); in the assay with NCI-H226, > 100 µM (inactive); with SF-539, > 100 µM (inactive); in the assay with HOP-62 it was 48.8 µM (inactive); with RPMI-8226, 17.9 µM (inactive). Moreover, the GI50 was 30.7 µM (inactive) in the assay with T47D; 37.2 µM (inactive) in the assay with HL-60; 44.4 µM (inactive) in the assay with Hs-578T; 31.8 µM (inactive) in the assay with NCI-H460; > 100 µM (inactive) in the assay with SNB-19; 13.6 µM (inactive) in the assay with UO-31. The GI50 in the assay with HT-29 was 58.1 µM (inactive); in the assay on SK-MEL-2, 56.6 µM (inactive); with PC-3 it was 81.8 µM (inactive); in the assay on SF-295 it was 21.6 µM (inactive); with SW-620, > 100 µM (inactive); with NCI/ADR-RES it was 27.8 µM (inactive). Also, the GI50 in the assay on HCT-116 is 70.8 µM (inactive).

On to `COc1cc(C(c2c(O)c3ccccc3oc2=O)c2c(O)c3ccccc3oc2=O)ccc1O`, for which the GI50 in the assay with MOLT-4 was 21.1 µM (inactive); in the assay with DU-145, 21.6 µM (inactive); in the assay on NCI-H226, 50.4 µM (inactive); in the assay with SF-539, 23.3 µM (inactive); with HOP-62, 44.4 µM (inactive); with RPMI-8226 it was 34.6 µM (inactive). The GI50 is 17.9 µM (inactive) in the assay with T47D; 21.5 µM (inactive) in the assay with SF-268; 24.7 µM (inactive) in the assay with HL-60; 40.4 µM (inactive) with Hs-578T; 20.9 µM (inactive) in the assay with NCI-H460; 26.8 µM (inactive) in the assay on SNB-19. Further, the GI50 with UO-31 is 25.1 µM (inactive); in the assay with HT-29, 21.1 µM (inactive); in the assay on SK-MEL-2, 25.2 µM (inactive); in the assay on PC-3, 33.7 µM (inactive); in the assay with SF-295 it was 35.1 µM (inactive); with SW-620, 23.7 µM (inactive). In addition, the GI50 was 28.6 µM (inactive) in the assay with NCI/ADR-RES and 34 µM (inactive) with HCT-116.
